According to publication PMC9806890, “Purification and biochemical characterization of two laccase isoenzymes isolated from Trichoderma harzianum S7113 and its application for bisphenol A degradation” (Microbial Cell Factories, 2023):

Legend:
Lac A (LacA) = tested on: T1, Lac A (LacA); assay: absorbance at […] nm, Lineweaver-Burk; assay type: biochemical, Trichoderma harzianum; conditions: 0.1 M sodium citrate, pH 4.5; ABTS 0.025-0.4 mM; O2 co-substrate
T1 construct: 63 kDa by SDS-PAGE

Lac B (LacB) = tested on: T2, Lac B (LacB); assay: absorbance at […] nm, Lineweaver-Burk; assay type: biochemical, Trichoderma harzianum; conditions: 0.1 M sodium citrate, pH 4.5; ABTS 0.025-0.4 mM; O2 co-substrate
T2 construct: 48 kDa by SDS-PAGE

- Km (Lac A (LacA)): 100 µM
- Km (Lac B (LacB)): 64 µM
Compound: CCn1c(=NN=c2sc3cc(S(=O)(=O)O)ccc3n2CC)sc2cc(S(=O)(=O)O)ccc21 [ABTS, 2,2ʹ-Azinobis-(3-ethylbenzothiazoline-6-sulfonic acid)]
